# Measured values taken from PubChem BioAssay AID1963863 (Molecular Pharmacology Branch, DTP, NCI, 2024).
# System: 931267-113-T-J1-PDC KRAS spheroid with HUVEC/MSC, viability
# Test: Anticancer human tumor 931267-113-T-J1-PDC patient-derived colon adenocarcinoma cell line growth inhibition [KRAS2]
# Conditions: for viability, T/C: stronger effect = lower value
# Method in brief: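 Combination screen of spheroid viability in tumor-cell co-cultures with endothelial (HUVEC) and mesenchymal stem cell stroma. Each agent was tested in half-log dilutions, topping at clinical Cmax or at 10 microM without a known Cmax.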
# [1] = curve of first compound, second compound 0.1 µM
# [2] = curve of first compound, second compound 0.316 µM
# [3] = curve of first compound, second compound 1 µM
# [4] = curve of first compound, second compound 3.16 µM
# [5] = curve of first compound, second compound 10 µM
# [6] = second compound 0.1 µM, first compound 0.00316 µM
# [7] = second compound 0.1 µM, first compound 0.01 µM
# [8] = second compound 0.1 µM, first compound 0.0316 µM
# [9] = second compound 0.1 µM, first compound 0.1 µM
# [10] = second compound 0.316 µM, first compound 0.00316 µM
# [11] = second compound 0.316 µM, first compound 0.01 µM
# [12] = second compound 0.316 µM, first compound 0.0316 µM
# [13] = second compound 0.316 µM, first compound 0.1 µM
# [14] = second compound 1 µM, first compound 0.00316 µM
# [15] = second compound 1 µM, first compound 0.01 µM
# [16] = second compound 1 µM, first compound 0.0316 µM
# [17] = second compound 1 µM, first compound 0.1 µM
# [18] = second compound 3.16 µM, first compound 0.00316 µM
# [19] = second compound 3.16 µM, first compound 0.01 µM
# [20] = second compound 3.16 µM, first compound 0.0316 µM
# [21] = second compound 3.16 µM, first compound 0.1 µM
# [22] = second compound 10 µM, first compound 0.00316 µM
# [23] = second compound 10 µM, first compound 0.01 µM
# [24] = second compound 10 µM, first compound 0.0316 µM
# [25] = second compound 10 µM, first compound 0.1 µM
# [26] = second compound 0.1 µM, first compound 0.316 µM
# [27] = second compound 0.1 µM, first compound 1 µM
# [28] = second compound 0.1 µM, first compound 3.16 µM
# [29] = second compound 0.1 µM, first compound 10 µM
# [30] = second compound 0.316 µM, first compound 0.316 µM
# [31] = second compound 0.316 µM, first compound 1 µM
# [32] = second compound 0.316 µM, first compound 3.16 µM
# [33] = second compound 0.316 µM, first compound 10 µM
# [34] = second compound 1 µM, first compound 0.316 µM
# [35] = second compound 1 µM, first compound 1 µM
# [36] = second compound 1 µM, first compound 3.16 µM
# [37] = second compound 1 µM, first compound 10 µM
# [38] = second compound 3.16 µM, first compound 0.316 µM
# [39] = second compound 3.16 µM, first compound 1 µM
# [40] = second compound 3.16 µM, first compound 3.16 µM
# [41] = second compound 3.16 µM, first compound 10 µM
# [42] = second compound 10 µM, first compound 0.316 µM
# [43] = second compound 10 µM, first compound 1 µM
# [44] = second compound 10 µM, first compound 3.16 µM
# [45] = second compound 10 µM, first compound 10 µM
# 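Also: compound exposure lasted 7 days before the readout.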
# 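For viability, T/C in this document: 100% = DMSO vehicle control viability.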
compound,measurement,setting,value
CNCc1ccccc1-c1csc(C(C)Nc2nc(C)nc3cc(OC)c(OC)cc23)c1 (stereo not given),"viability, T/C",compound 10 µM,0.16% [middle of 14 runs]
same,IC50,"compound alone, run of 08/26/2021",1.13 µM [middle of 5 runs]
same,IC50,"compound alone, run of 09/02/2021",952 nM [middle of 5 runs]
CN(C)C/C=C/C(=O)Nc1cc2c(Nc3ccc(F)c(Cl)c3)ncnc2cc1O[C@H]1CCOC1 + CC1OCC2(CCN(c3cnc(Sc4ccnc(N)c4Cl)c(N)n3)CC2)C1N,IC50,[1],> 100 nM
same,IC50,[2],> 100 nM
same,IC50,[3],> 100 nM
same,IC50,[4],< 0.316 nM
same,IC50,[5],> 100 nM
same,"viability, T/C","second compound 0.1 µM, first compound 0.000316 µM",80.6%
same,"viability, T/C","second compound 0.1 µM, first compound 0.001 µM",77.1%
same,"viability, T/C",[6],58.5%
same,"viability, T/C",[7],73.5%
same,"viability, T/C",[8],84.6%
same,"viability, T/C",[9],69%
same,"viability, T/C","second compound 0.316 µM, first compound 0.000316 µM",66.8%
same,"viability, T/C","second compound 0.316 µM, first compound 0.001 µM",70%
same,"viability, T/C",[10],65.5%
same,"viability, T/C",[11],62.6%
same,"viability, T/C",[12],67.4%
same,"viability, T/C",[13],80.4%
same,"viability, T/C","second compound 1 µM, first compound 0.000316 µM",84.4%
same,"viability, T/C","second compound 1 µM, first compound 0.001 µM",77.4%
same,"viability, T/C",[14],77%
same,"viability, T/C",[15],71.4%
same,"viability, T/C",[16],93.5%
same,"viability, T/C",[17],90.8%
same,"viability, T/C","second compound 3.16 µM, first compound 0.000316 µM",34.6%
same,"viability, T/C","second compound 3.16 µM, first compound 0.001 µM",48.8%
same,"viability, T/C",[18],49.1%
same,"viability, T/C",[19],49.6%
same,"viability, T/C",[20],57.7%
same,"viability, T/C",[21],49.4%
same,"viability, T/C","second compound 10 µM, first compound 0.000316 µM",90.2%
same,"viability, T/C","second compound 10 µM, first compound 0.001 µM",71.6%
same,"viability, T/C",[22],68.4%
same,"viability, T/C",[23],71.5%
same,"viability, T/C",[24],97.1%
same,"viability, T/C",[25],93.7%
COC(=O)c1ccc2c(C(=Nc3ccc(N(C)C(=O)CN4CCN(C)CC4)cc3)c3ccccc3)c(O)[nH]c2c1,"viability, T/C",compound 0.0316 µM,85.8% [middle of 5 runs]
same,"viability, T/C",compound 0.1 µM,78.5% [middle of 5 runs]
same,"viability, T/C",compound 0.316 µM,69.6% [middle of 5 runs]
same,"viability, T/C",compound 1 µM,59.2% [middle of 5 runs]
same,"viability, T/C",compound 3.16 µM,0.6% [middle of 4 runs]
same,"viability, T/C",compound 10 µM,0.39% [middle of 4 runs]
same,IC50,curve of compound,1.2 µM [middle of 5 runs]
COc1cc(Nc2ncc3c(n2)-c2ccc(Cl)cc2C(c2c(F)cccc2OC)=NC3)ccc1C(=O)O + C=CC(=O)N1CCN(c2nc(=O)n(-c3c(C)ccnc3C(C)C)c3nc(-c4c(O)cccc4F)c(F)cc23)C(C)C1,IC50,[1],> 10000 nM
same,IC50,[2],> 10000 nM
same,IC50,[3],> 10000 nM
same,IC50,[4],> 10000 nM
same,IC50,[5],> 10000 nM
same,"viability, T/C",[8],102%
same,"viability, T/C",[9],114%
same,"viability, T/C",[26],122%
same,"viability, T/C",[27],99.9%
same,"viability, T/C",[28],96.8%
same,"viability, T/C",[29],103%
same,"viability, T/C",[12],101%
same,"viability, T/C",[13],93.8%
same,"viability, T/C",[30],98%
same,"viability, T/C",[31],108%
same,"viability, T/C",[32],95.2%
same,"viability, T/C",[33],72.7%
same,"viability, T/C",[16],129%
same,"viability, T/C",[17],109%
same,"viability, T/C",[34],107%
same,"viability, T/C",[35],127%
same,"viability, T/C",[36],106%
same,"viability, T/C",[37],83.3%
same,"viability, T/C",[20],126%
same,"viability, T/C",[21],109%
same,"viability, T/C",[38],103%
same,"viability, T/C",[39],110%
same,"viability, T/C",[40],107%
same,"viability, T/C",[41],88.4%
same,"viability, T/C",[24],136%
same,"viability, T/C",[25],111%
same,"viability, T/C",[42],118%
same,"viability, T/C",[43],127%
same,"viability, T/C",[44],119%
same,"viability, T/C",[45],90.3%
CC1COCCN1c1cc(-c2ccnn2C)c2ccnc(-c3ccn[nH]3)c2n1 (stereo not given) + C=CC(=O)N1CCN(c2nc(OCC3CCCN3C)nc3c2CCN(c2cccc4cccc(C)c24)C3)CC1CC#N,IC50,"curve of first compound, second compound 0.0316 µM",44.1 nM
same,IC50,[1],45.4 nM
same,IC50,[2],39.8 nM
same,IC50,[3],25.6 nM
same,IC50,[4],< 10 nM
same,"viability, T/C","second compound 0.0316 µM, first compound 0.01 µM",90.9%
same,"viability, T/C","second compound 0.0316 µM, first compound 0.0316 µM",59%
same,"viability, T/C","second compound 0.0316 µM, first compound 0.1 µM",27.8%
same,"viability, T/C","second compound 0.0316 µM, first compound 0.316 µM",19.2%
same,"viability, T/C","second compound 0.0316 µM, first compound 1 µM",18.1%
same,"viability, T/C","second compound 0.0316 µM, first compound 3.16 µM",18%
same,"viability, T/C",[7],122%
same,"viability, T/C",[8],62.8%
same,"viability, T/C",[9],22.2%
same,"viability, T/C",[26],18.6%
same,"viability, T/C",[27],21.6%
same,"viability, T/C",[28],21.5%
same,"viability, T/C",[11],75.6%
same,"viability, T/C",[12],56.4%
same,"viability, T/C",[13],24.7%
same,"viability, T/C",[30],16.8%
same,"viability, T/C",[31],18.9%
same,"viability, T/C",[32],24.5%
same,"viability, T/C",[15],88.9%
same,"viability, T/C",[16],41.3%
same,"viability, T/C",[17],12%
same,"viability, T/C",[34],12.8%
same,"viability, T/C",[35],21.3%
same,"viability, T/C",[36],24.1%
same,"viability, T/C",[19],0.25%
same,"viability, T/C",[20],0.19%
same,"viability, T/C",[21],0.38%
same,"viability, T/C",[38],0.14%
same,"viability, T/C",[39],0.14%
same,"viability, T/C",[40],0.94%
COc1cc(Nc2ncc3c(n2)-c2ccc(Cl)cc2C(c2c(F)cccc2OC)=NC3)ccc1C(=O)O + CC1OCC2(CCN(c3cnc(Sc4ccnc(N)c4Cl)c(N)n3)CC2)C1N,IC50,[1],> 10000 nM
same,IC50,[2],6420 nM
same,IC50,[3],848 nM
same,IC50,[4],571 nM
same,IC50,[5],799 nM
same,"viability, T/C",[8],69.3%
same,"viability, T/C",[9],75.1%
same,"viability, T/C",[26],58.4%
same,"viability, T/C",[27],58%
same,"viability, T/C",[28],51.7%
same,"viability, T/C",[29],54%
same,"viability, T/C",[12],67.4%
same,"viability, T/C",[13],68.7%
same,"viability, T/C",[30],57.1%
same,"viability, T/C",[31],61.3%
same,"viability, T/C",[32],49%
same,"viability, T/C",[33],49.5%
same,"viability, T/C",[16],62.4%
same,"viability, T/C",[17],52.4%
same,"viability, T/C",[34],54.4%
same,"viability, T/C",[35],51.5%
same,"viability, T/C",[36],41.3%
same,"viability, T/C",[37],31.6%
same,"viability, T/C",[20],53.4%
same,"viability, T/C",[21],64.6%
same,"viability, T/C",[38],56.8%
same,"viability, T/C",[39],42%
same,"viability, T/C",[40],33.3%
same,"viability, T/C",[41],21.6%
same,"viability, T/C",[24],70.2%
same,"viability, T/C",[25],65.4%
same,"viability, T/C",[42],51.1%
same,"viability, T/C",[43],46.8%
same,"viability, T/C",[44],43.3%
same,"viability, T/C",[45],15.8%
CCN1CCN(Cc2ccc(Nc3ncc(F)c(-c4cc(F)c5nc(C)n(C(C)C)c5c4)n3)nc2)CC1 + C=CC(=O)N1CCN(c2nc(=O)n(-c3c(C)ccnc3C(C)C)c3nc(-c4c(O)cccc4F)c(F)cc23)C(C)C1,IC50,[1],> 1000 nM
same,IC50,[2],> 1000 nM
same,IC50,[3],> 1000 nM
same,IC50,[4],> 1000 nM
same,IC50,[5],367 nM
same,"viability, T/C",[6],103%
same,"viability, T/C",[7],73.6%
same,"viability, T/C",[8],81.2%
same,"viability, T/C",[9],87.4%
same,"viability, T/C",[26],71.8%
same,"viability, T/C",[27],50.8%
same,"viability, T/C",[10],95.2%
same,"viability, T/C",[11],88.3%
same,"viability, T/C",[12],82.5%
same,"viability, T/C",[13],65.8%
same,"viability, T/C",[30],60.8%
same,"viability, T/C",[31],50.8%
same,"viability, T/C",[14],105%
same,"viability, T/C",[15],83.1%
same,"viability, T/C",[16],78.4%
same,"viability, T/C",[17],80.9%
same,"viability, T/C",[34],60.7%
same,"viability, T/C",[35],51%
same,"viability, T/C",[18],94%
same,"viability, T/C",[19],90.3%
same,"viability, T/C",[20],83.5%
same,"viability, T/C",[21],73.6%
same,"viability, T/C",[38],74.3%
same,"viability, T/C",[39],47.5%
same,"viability, T/C",[22],89.1%
same,"viability, T/C",[23],99.9%
same,"viability, T/C",[24],90.2%
same,"viability, T/C",[25],72.5%
same,"viability, T/C",[42],60.1%
same,"viability, T/C",[43],4.51%
